Laboratory results taken from patent publication US11986532B2 (Arvinas Operations, Inc., priority 2021, dated 2024).

Molecular target: T1, BCL6 (Homo sapiens, UniProt P41182)
T1 construct: endogenous in cells; host or cells: T47D breast cancer epithelial cells
Assay: Immunofluorescence protocol for high content imaging of BCL6 (degradation) in T47D cells, 3 days compound treatment
Format: cell-based
Conditions: for Dmax: T47D, read-out: Mean Dmax (%)** category; for DC50: read-out: Mean DC50 (nM)* category
In short: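 T47D, RPMI1640/10% FBS; cpd 11-pt 3-fold, top 0.1 or 1 μM final; 3 d, 37° C. Fix 4% PFA, perm 0.1% Triton, block 3% BSA; anti-BCL6 1:300 o/n 4° C; Alexa-488 2°, CellMask-647, Hoechst. Imaged 10×, 4 fields/well.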

CNC(=O)COc1cc2c(F)c(Nc3nc(N4CCC(CN5CCC6(CC5)CN(c5ccc7c(c5)C(=O)N(C5CCC(=O)NC5=O)C7=O)C6(C)C)CC4)ncc3Cl)ccc2n(C(C)C)c1=O (stereo not shown) [Compound 375, 2-{[6-({5-chloro-2-[4-({2-[2-(2,6-dioxopiperidin-3-yl)-1,3-dioxo-2,3-dihydro-1H-isoindol-5-yl]-1,1-dimethyl-2,7-diazaspiro[3.5]nonan-7-yl}methyl)piperidin-1-yl]pyrimidin-4-yl}amino)-5-fluoro-2-oxo-1-(propan-2-yl)-1,2-dihydroquinolin-3-yl]oxy}-N-methylacetamide]
Dmax: ≥ 70%
DC50: < 10 nM

CNC(=O)COc1cc2c(F)c(Nc3nc(N4CCC(CN5CCC6(CN(c7ccc8c(c7F)CN(C7CCC(=O)NC7=O)C8=O)C6)C(F)(F)C5)CC4)ncc3Cl)ccc2n(C(C)C)c1=O (stereo not shown) [Compound 376, 2-{[6-({5-chloro-2-[4-({2-[2-(2,6-dioxopiperidin-3-yl)-4-fluoro-1-oxo-2,3-dihydro-1H-isoindol-5-yl]-5,5-difluoro-2,7-diazaspiro[3.5]nonan-7-yl}methyl)piperidin-1-yl]pyrimidin-4-yl}amino)-5-fluoro-2-oxo-1-(propan-2-yl)-1,2-dihydroquinolin-3-yl]oxy}-N-methylacetamide]
Dmax: ≥ 70%
DC50: < 10 nM

CNC(=O)COc1cc2cc(Nc3nc(N4CCC(O[C@H]5C[C@H](N6CC7(CCN(c8ccc9c(c8)C(=O)N(C8CCC(=O)NC8=O)C9)CC7)C6)C5)CC4)ncc3Cl)ccc2n(C(C)C)c1=O (stereo partly shown) [Compound 377, 2-({6-[(5-chloro-2-{4-[(1r,3r)-3-{7-[2-(2,6-dioxopiperidin-3-yl)-3-oxo-2,3-dihydro-1H-isoindol-5-yl]-2,7-diazaspiro[3.5]nonan-2-yl}cyclobutoxy]piperidin-1-yl}pyrimidin-4-yl)amino]-2-oxo-1-(propan-2-yl)-1,2-dihydroquinolin-3-yl}oxy)-N-methylacetamide]
Dmax: ≥ 70%
DC50: 50 to 100 nM

CNC(=O)COc1cc2cc(Nc3nc(N4CCC(O[C@H]5C[C@H](N6CCN(c7cc(C)c8c(c7)C(=O)N(C7CCC(=O)NC7=O)C8=O)CC6)C5)CC4)ncc3Cl)ccc2n(C(C)C)c1=O (stereo partly shown) [Compound 378, 2-({6-[(5-chloro-2-{4-[(1r,3r)-3-{4-[2-(2,6-dioxopiperidin-3-yl)-7-methyl-1,3-dioxo-2,3-dihydro-1H-isoindol-5-yl]piperazin-1-yl}cyclobutoxy]piperidin-1-yl}pyrimidin-4-yl)amino]-2-oxo-1-(propan-2-yl)-1,2-dihydroquinolin-3-yl}oxy)-N-methylacetamide]
Dmax: 50 to 70%
DC50: 10 to 50 nM

CNC(=O)COc1cc2cc(Nc3nc(N4CCC(O[C@H]5C[C@H](N6CCN(c7cc(OC)c8c(c7)C(=O)N(C7CCC(=O)NC7=O)C8=O)CC6)C5)CC4)ncc3Cl)ccc2n(C(C)C)c1=O (stereo partly shown) [Compound 379, 2-({6-[(5-chloro-2-{4-[(1r,3r)-3-{4-[2-(2,6-dioxopiperidin-3-yl)-7-methoxy-1,3-dioxo-2,3-dihydro-1H-isoindol-5-yl]piperazin-1-yl}cyclobutoxy]piperidin-1-yl}pyrimidin-4-yl)amino]-2-oxo-1-(propan-2-yl)-1,2-dihydroquinolin-3-yl}oxy)-N-methylacetamide]
Dmax: 50 to 70%
DC50: < 10 nM

CNC(=O)COc1cc2c(F)c(Nc3nc(N4CCC(O[C@H]5C[C@H](N6CCC(c7ccc8c(c7F)CN([C@H]7CCC(=O)NC7=O)C8=O)CC6)C5)CC4)ncc3Cl)ccc2n(C(C)C)c1=O [Compound 380, 2-({6-[(5-chloro-2-{4-[(1r,3r)-3-(4-{2-[(3S)-2,6-dioxopiperidin-3-yl]-4-fluoro-1-oxo-2,3-dihydro-1H-isoindol-5-yl}piperidin-1-yl)cyclobutoxy]piperidin-1-yl}pyrimidin-4-yl)amino]-5-fluoro-2-oxo-1-(propan-2-yl)-1,2-dihydroquinolin-3-yl}oxy)-N-methylacetamide]
Dmax: 50 to 70%
DC50: < 10 nM

CNC(=O)COc1cc2c(F)c(Nc3nc(N4CCC(O[C@H]5C[C@H](N6CCC(c7ccc8c(c7F)CN([C@@H]7CCC(=O)NC7=O)C8=O)CC6)C5)CC4)ncc3Cl)ccc2n(C(C)C)c1=O [Compound 381, 2-({6-[(5-chloro-2-{4-[(1r,3r)-3-(4-{2-[(3R)-2,6-dioxopiperidin-3-yl]-4-fluoro-1-oxo-2,3-dihydro-1H-isoindol-5-yl}piperidin-1-yl)cyclobutoxy]piperidin-1-yl}pyrimidin-4-yl)amino]-5-fluoro-2-oxo-1-(propan-2-yl)-1,2-dihydroquinolin-3-yl}oxy)-N-methylacetamide]
Dmax: ≥ 70%
DC50: < 10 nM

CNC(=O)COc1cc2cc(Nc3nc(N4CCC(F)(CN5CCC6(CC5)CN(c5ccc7c(c5)CN(C5CCC(=O)NC5=O)C7=O)C6(C)C)CC4)ncc3Cl)ccc2n(C(C)C)c1=O (stereo not shown) [Compound 382, 2-{[6-({5-chloro-2-[4-({2-[2-(2,6-dioxopiperidin-3-yl)-1-oxo-2,3-dihydro-1H-isoindol-5-yl]-1,1-dimethyl-2,7-diazaspiro[3.5]nonan-7-yl}methyl)-4-fluoropiperidin-1-yl]pyrimidin-4-yl}amino)-2-oxo-1-(propan-2-yl)-1,2-dihydroquinolin-3-yl]oxy}-N-methylacetamide]
Dmax: ≥ 70%
DC50: < 10 nM

CNC(=O)COc1cc2cc(Nc3nc(N4CCC(OC5CCC6(CC5)CN(c5ccc7c(c5Cl)CN(C5CCC(=O)NC5=O)C7=O)C6)CC4)ncc3Cl)ccc2n(C(C)C)c1=O (stereo not shown) [Compound 383, 2-{[6-({5-chloro-2-[4-({2-[4-chloro-2-(2,6-dioxopiperidin-3-yl)-1-oxo-2,3-dihydro-1H-isoindol-5-yl]-2-azaspiro[3.5]nonan-7-yl}oxy)piperidin-1-yl]pyrimidin-4-yl}amino)-2-oxo-1-(propan-2-yl)-1,2-dihydroquinolin-3-yl]oxy}-N-methylacetamide]
Dmax: ≥ 70%
DC50: < 10 nM

CNC(=O)COc1cc2cc(Nc3nc(N4CCC(O[C@H]5C[C@H](N6CCC(c7ccc8c(c7F)CN([C@@H]7CCC(=O)NC7=O)C8=O)CC6)C5)CC4)ncc3Cl)ccc2n(C(C)C)c1=O [Compound 384, 2-({6-[(5-chloro-2-{4-[(1r,3r)-3-(4-{2-[(3R)-2,6-dioxopiperidin-3-yl]-4-fluoro-1-oxo-2,3-dihydro-1H-isoindol-5-yl}piperidin-1-yl)cyclobutoxy]piperidin-1-yl}pyrimidin-4-yl)amino]-2-oxo-1-(propan-2-yl)-1,2-dihydroquinolin-3-yl}oxy)-N-methylacetamide]
Dmax: 50 to 70%
DC50: < 10 nM

CNC(=O)COc1cc2cc(Nc3nc(N4CCC(O[C@H]5C[C@H](N6CCC(c7ccc8c(c7F)CN([C@H]7CCC(=O)NC7=O)C8=O)CC6)C5)CC4)ncc3Cl)ccc2n(C(C)C)c1=O [Compound 385, 2-({6-[(5-chloro-2-{4-[(1r,3r)-3-(4-{2-[(3S)-2,6-dioxopiperidin-3-yl]-4-fluoro-1-oxo-2,3-dihydro-1H-isoindol-5-yl}piperidin-1-yl)cyclobutoxy]piperidin-1-yl}pyrimidin-4-yl)amino]-2-oxo-1-(propan-2-yl)-1,2-dihydroquinolin-3-yl}oxy)-N-methylacetamide]
Dmax: 50 to 70%
DC50: < 10 nM
